# Test results reported in ChEMBL document CHEMBL3638409, “Cycloalkane carboxylic acid derivatives as CXCR3 receptor antagonists” (2015).
# Biological target: T1, C-X-C chemokine receptor type 3 (Homo sapiens, UniProt P49682)
# T1 sequence (P49682 whole entry): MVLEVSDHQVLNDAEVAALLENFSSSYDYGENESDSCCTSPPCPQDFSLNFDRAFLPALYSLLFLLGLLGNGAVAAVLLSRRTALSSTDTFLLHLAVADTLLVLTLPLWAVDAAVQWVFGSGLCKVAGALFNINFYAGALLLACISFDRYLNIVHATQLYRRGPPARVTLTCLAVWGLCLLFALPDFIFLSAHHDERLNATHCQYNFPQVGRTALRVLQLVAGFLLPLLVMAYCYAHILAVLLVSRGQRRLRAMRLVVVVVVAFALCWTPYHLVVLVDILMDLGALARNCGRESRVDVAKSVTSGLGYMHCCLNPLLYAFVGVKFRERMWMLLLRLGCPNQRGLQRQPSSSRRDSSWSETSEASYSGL
# Experiment: Competition Radioligand Binding Assay: Competition radioligand binding assays were performed to determine the in vitro potency of the newly synthesized, unlabeled test compounds to displace the specific binding of the radiolabelled endogenous chemokine, 125I-CXCL10, from the human CXCR3-A receptor. IC50 values were determined for the test compounds and used to explore the structure-activity relationships (SAR).
row,IC50 [nM],Structure (SMILES)
1,1200,CN1CC(=O)N(CCOc2ccc(CN(C[C@H]3CC[C@H](C(=O)O)CC3)C3CCc4cc(Cl)ccc43)cc2Cl)C1=O (some centres undefined)
2,81,COc1cc(CN(C[C@H]2CC[C@H](C(=O)O)CC2)C(C)c2ccc3c(c2)CCO3)ccc1CCCN1C(=O)CCC1=O (some centres undefined)
3,431,Cc1cc(CN(C[C@H]2CC[C@H](C(=O)O)CC2)C(C)c2ccc(Cl)c(Cl)c2)ccc1OCCN1C(=O)CN(C)C1=O (some centres undefined)
4,58,COc1cc(CN(C2CC(C(=O)O)C2)C(C)c2ccc3c(c2)CCO3)ccc1OCCN1C(=O)CCC1=O (centres undefined)
